Measured values taken from publication PMC10743086, “Immunofluorescence-Based Assay for High-Throughput Analysis of Multidrug Resistance Markers in Non-Small Cell Lung Carcinoma Patient-Derived Cells” (Diagnostics, 2023).

Columns and labels:
Type in all cases: cell-based, human
NCI-H460 cells = test: Cytotoxicity by immunofluorescence cell scoring (cell counts), NSCLC cell line; conditions: 24 h treatment
Description: (§1) Vinorelbine and pemetrexed were purchased from Selleckchem (Houston, TX, USA). Carboplatin, cisplatin, docetaxel, etoposide, gemcitabine, gefitinib, and paclitaxel were purchased from Sigma-Aldrich Chemie GmbH (Taufkirchen, Germany). The cisplatin, carboplatin, and gemcitabine were dissolved in sterile water, while the etoposide, docetaxel, vinorelbine, paclitaxel, gefitinib, and pemetrexed were dissolved in DMSO and stored at −20 °C. Before treatment, all the stock solutions were freshly diluted in sterile water.
(§2) The compounds were administered 48 h after seeding. The treatment lasted 24 h.
(§3) The immunofluorescence assay for the quantification of MDR markers was optimized to distinguish cancer cells from stromal cells using a cytokeratin 8/18 (CK8/18) antibody cocktail. The cells were fixed with 4% paraformaldehyde for 20 min at RT and washed three times with PBS using the Wellwash Versa microplate washer (Thermo Fisher Scientific, Waltham, MA, USA). The cells were then blocked with 2% bovine serum albumin (BSA) in PBS for 1 h at RT. […] Co-immunostaining with antibodies against MDR markers was performed to detect the presence of ABCB1, ABCC1, and ABCG2 in both the cancer and stromal cells. […] The secondary antibodies were incubated with the cells at RT for 2 h in the dark. […] Finally, the cells were washed three times with PBS and stored at 4 °C in the dark before imaging.
(§4) The fluorescently labeled cells were imaged using the ImageXpress Pico Automated Cell Imaging System (Molecular Devices, San Jose, CA, USA) with a 4x objective after determining the appropriate exposure time for each illumination filter. Analysis of the obtained images was performed using CellReporterXpress software v. 2.8.2.669 (Molecular Devices). The cytotoxicity of the compounds was determined using the Cell Scoring Analysis Protocol. […] Expression of MDR markers was determined using the Multi-Wavelength Cell Scoring Analysis Protocol.

NCI-H460/R cells = test: Cytotoxicity by immunofluorescence cell scoring (cell counts), multidrug-resistant NSCLC cell line; conditions: 24 h treatment
Source text: Human non-small cell lung carcinoma cells (NCI-H460) were purchased from the American Type Culture Collection (Rockville, MD, USA), and normal embryonic lung fibroblasts (MRC-5) were purchased from the European Collection of Authenticated Cell Cultures (Salisbury, UK). Multidrug-resistant NCI-H460/R cells overexpressing ABCB1 were selected from the NCI-H460 cells after selective pressure with doxorubicin [21]. All the cell lines were maintained in MEM medium (Sigma-Aldrich Chemie GmbH, Taufkirchen, Germany) supplemented with 10% FBS, 2 mM L-glutamine, and antibiotic-antimycotic solution. All the cell lines were maintained at 37 °C in a humidified atmosphere with 5% CO2.
as §1, §2, §3, §4

MRC-5 cells = test: Cytotoxicity by immunofluorescence cell scoring (cell counts), normal fibroblasts; conditions: 24 h treatment
Description: as §1, §2, §3, §4

[1] = system: ABCB1 expression in MRC-5 cells; test: Immunofluorescence assay of MDR marker ABCB1 expression; conditions: five concentrations, 24 h
Description: as §1, §2, §3, §4

[2] = system: ABCB1 expression in NCI-H460 cells; test: as above; conditions: five concentrations, 24 h
Description: as §1, §2, §3, §4

[3] = system: ABCB1 expression in NCI-H460/R cells; test: as above; conditions: five concentrations, 24 h
Description: as §1, §2, §3, §4

[4] = system: Non-cancer cells (CK8/18-) of patient-derived NSCLC cultures; test: Cytotoxicity in patient-derived NSCLC cultures, non-cancer cells; conditions: 7 days treatment
Description: (§5) Tissue samples were collected during surgery, and the NSCLC diagnosis, histological grade, stage, necrosis, and lymph node invasion status were determined by histopathological analysis. […] The surgical specimens were placed in a sterile tube containing antibiotic-antimycotic solution (Sigma-Aldrich Chemie GmbH, Taufkirchen, Germany) and immediately transported to the research laboratory for further processing.
(§6) Upon arrival, the tissue was manually chopped with a surgical blade in a Petri dish under sterile conditions. The samples were cut into 3–5 mm pieces and further dissociated using the Tumor Dissociation Kit (Miltenyi Biotec, Bergisch Gladbach, Germany). The Tumor Dissociation Kit was used to dissociate the cells from the tumor tissue according to the manufacturer’s instructions. The samples were incubated in a 37 °C orbital shaker (KS 4000 ic control, IKA, Königswinter, Germany) at 300 rpm for 90 min. After incubation, the dissociated tissue was placed in DMEM/Ham’s F12 (1:3 ratio) growth medium supplemented with 5% fetal bovine serum (Corning, NY, USA), antibiotic-antimycotic solution, 4 µg/mL hydrocortisone (Sigma-Aldrich Chemie GmbH, Taufkirchen, Germany), 1 µg/mL insulin (Sigma-Aldrich Chemie GmbH, Taufkirchen, Germany), 10 ng/mL epidermal growth factor (BioLegend, San Diego, CA, USA), and 24 µg/mL adenine (Sigma-Aldrich Chemie GmbH, Taufkirchen, Germany). The DMEM and Ham’s F12 growth media were purchased from Sigma-Aldrich Chemie GmbH (Taufkirchen, Germany).
(§7) The dissociated tissue was cultured in T-25 cell culture flasks until cell attachment was observed before the medium was replaced. If no cell attachment was achieved within 7 days, the sample was discarded. Successful patient-derived cultures were maintained at 37 °C in a humidified atmosphere with 5% CO2 and grown to confluence before undergoing further experiments. […] Partial trypsinization was performed by detaching the fibroblast-like cells with 1 mL of 0.05% trypsin for 1 min at 37 °C, followed by 2 min at room temperature (RT).
as §1
(§8) The primary cells were seeded in black, clear bottom 384-well cell culture microplates (Thermo Fisher Scientific, Waltham, MA, USA) in 50 µL of cell growth medium at a density of 1000 cells per well. The compounds were administered 72 h after seeding. The treatment lasted 7 days.
as §3

[5] = system: ABCC1 expression in cancer cells (CK8/18+); test: Immunofluorescence assay of ABCC1 expression in patient-derived NSCLC cultures; conditions: 7 days
Description: as §5, §6, §7, §1, §8, §3

[6] = NCI-H460 (co-culture with MRC-5)
[7] = NCI-H460/R (co-culture with MRC-5)
[8] = MRC-5 (co-culture with NCI-H460)
[9] = MRC-5 (co-culture with NCI-H460/R)
[10] = culture TR58, cancer cells (CK8/18+)
[11] = culture TR64, cancer cells (CK8/18+)
[12] = culture TR65, cancer cells (CK8/18+)
[13] = culture TR84, cancer cells (CK8/18+)
[14] = culture TR87, cancer cells (CK8/18+)
[15] = Homo sapiens, NCI-H460, 24 h, NCI-H460 (co-culture with MRC-5)
[16] = Homo sapiens, NCI-H460, 24 h, NCI-H460 monoculture
[17] = Homo sapiens, NCI-H460/R (co-culture with MRC-5)
[18] = Homo sapiens, NCI-H460/R monoculture
[19] = Homo sapiens, MRC5, 24 h, MRC-5 (co-culture with NCI-H460)
[20] = Homo sapiens, MRC5, 24 h, MRC-5 monoculture
[21] = Homo sapiens, 168 h, culture TR58, non-cancer cells (CK8/18-)
[22] = Homo sapiens, 168 h, culture TR64, non-cancer cells (CK8/18-)
[23] = Homo sapiens, 168 h, culture TR65, non-cancer cells (CK8/18-)
[24] = Homo sapiens, 168 h, culture TR84, non-cancer cells (CK8/18-)
[25] = Homo sapiens, 168 h, culture TR87, non-cancer cells (CK8/18-)

SMILES	ABCB1 Expression [1, 8]	ABCB1 Expression [1, 9]	ABCB1 Expression ([1]; MRC-5 monoculture)	ABCB1 Expression [2, 6]	ABCB1 Expression ([2]; NCI-H460 monoculture)	ABCB1 Expression [3, 7]	ABCB1 Expression ([3]; NCI-H460/R monoculture)	ABCC1 expression [5, 10]	ABCC1 expression [5, 11]	ABCC1 expression [5, 12]	ABCC1 expression [5, 13]	ABCC1 expression [5, 14]	IC50 (NCI-H460 cells; [15])	IC50 (NCI-H460 cells; [16])	IC50 (NCI-H460/R cells; [17])	IC50 (NCI-H460/R cells; [18])	IC50 (MRC-5 cells; [19])	IC50 (MRC-5 cells; [20])	IC50 [4, 21]	IC50 [4, 22]	also measured
N.N.[Cl][Pt][Cl] [Cisplatin, cisplatin]	no change	no change	no change	no change	increase (An increase in ABCB1 expression of at least 20% at a minimum of one concentration is shown in the table.)	no change	no change	no change	increase (An increase in ABCB1, ABCC1, or ABCG2 expression of at least 20% at a minimum of one concentration is shown in the table.)	increase (An increase in ABCB1, ABCC1, or ABCG2 expression of at least 20% at a minimum of one concentration is shown in the table.)	increase (An increase in ABCB1, ABCC1, or ABCG2 expression of at least 20% at a minimum of one concentration is shown in the table.)	increase (An increase in ABCB1, ABCC1, or ABCG2 expression of at least 20% at a minimum of one concentration is shown in the table.)									IC50 (NCI-H460 cells; [6]): 9.79 µM; IC50 (NCI-H460 cells; NCI-H460 monoculture): 5.71 µM; IC50 (NCI-H460/R cells; [7]): 5.6 µM; IC50 (NCI-H460/R cells; NCI-H460/R monoculture): 5.33 µM; IC50 (MRC-5 cells; [8]): > 15 µM; IC50 (MRC-5 cells; [9]): > 15 µM; IC50 (MRC-5 cells; MRC-5 monoculture): 14.7 µM; IC50 ([4]; culture TR58, non-cancer cells (CK8/18-)): 5.1 µM; IC50 ([4]; culture TR64, non-cancer cells (CK8/18-)): 8.26 µM; IC50 ([4]; culture TR65, non-cancer cells (CK8/18-)): 1.21 µM; IC50 ([4]; culture TR84, non-cancer cells (CK8/18-)): 0.789 µM; IC50 ([4]; culture TR87, non-cancer cells (CK8/18-)): 3.38 µM
CC(=O)O[C@@]12CO[C@@H]1C[C@H](O)[C@@]1(C)C(=O)[C@H](O)C3=C(C)[C@@H](OC(=O)[C@H](O)[C@@H](NC(=O)OC(C)(C)C)c4ccccc4)C[C@@](O)([C@@H](OC(=O)c4ccccc4)[C@H]21)C3(C)C [Docetaxel, docetaxel]	no change	no change	no change	increase (An increase in ABCB1 expression of at least 20% at a minimum of one concentration is shown in the table.)	increase (An increase in ABCB1 expression of at least 20% at a minimum of one concentration is shown in the table.)	no change	no change	no change	increase (An increase in ABCB1, ABCC1, or ABCG2 expression of at least 20% at a minimum of one concentration is shown in the table.)	increase (An increase in ABCB1, ABCC1, or ABCG2 expression of at least 20% at a minimum of one concentration is shown in the table.)	increase (An increase in ABCB1, ABCC1, or ABCG2 expression of at least 20% at a minimum of one concentration is shown in the table.)	increase (An increase in ABCB1, ABCC1, or ABCG2 expression of at least 20% at a minimum of one concentration is shown in the table.)	0.642 µM	0.554 µM	0.801 µM	0.704 µM	> 5 µM	> 5 µM	1.59 µM	2.73 µM	IC50 (MRC-5 cells; Homo sapiens, MRC5, MRC-5 (co-culture with NCI-H460/R)): > 5 µM; IC50 [4, 23]: 0.461 µM; IC50 [4, 24]: 0.182 µM; IC50 [4, 25]: 3.05 µM
COc1cc([C@@H]2c3cc4c(cc3[C@@H](O[C@@H]3O[C@@H]5CO[C@@H](C)O[C@H]5[C@H](O)[C@H]3O)[C@H]3COC(=O)[C@H]23)OCO4)cc(OC)c1O [Etoposide, etoposide]	no change	no change	no change	increase (An increase in ABCB1 expression of at least 20% at a minimum of one concentration is shown in the table.)	increase (An increase in ABCB1 expression of at least 20% at a minimum of one concentration is shown in the table.)	no change	no change	no change	increase (An increase in ABCB1, ABCC1, or ABCG2 expression of at least 20% at a minimum of one concentration is shown in the table.)	increase (An increase in ABCB1, ABCC1, or ABCG2 expression of at least 20% at a minimum of one concentration is shown in the table.)	increase (An increase in ABCB1, ABCC1, or ABCG2 expression of at least 20% at a minimum of one concentration is shown in the table.)	increase (An increase in ABCB1, ABCC1, or ABCG2 expression of at least 20% at a minimum of one concentration is shown in the table.)	6.07 µM	4.81 µM	7.5 µM	7.92 µM	> 30 µM	> 30 µM	6.49 µM	18.1 µM	IC50 (MRC-5 cells; Homo sapiens, MRC5, 24 h, MRC-5 (co-culture with NCI-H460/R)): > 30 µM; IC50 [4, 23]: 2.08 µM; IC50 [4, 24]: 1.01 µM; IC50 [4, 25]: 10.2 µM
